Measured values published in ChEMBL document CHEMBL5244261, “Insights of tankyrases: A novel target for drug discovery” (Eur J Med Chem, 2020).

Molecular target: T1, Poly [ADP-ribose] polymerase tankyrase-1 (Homo sapiens, UniProt O95271)
T1 sequence (O95271 whole entry): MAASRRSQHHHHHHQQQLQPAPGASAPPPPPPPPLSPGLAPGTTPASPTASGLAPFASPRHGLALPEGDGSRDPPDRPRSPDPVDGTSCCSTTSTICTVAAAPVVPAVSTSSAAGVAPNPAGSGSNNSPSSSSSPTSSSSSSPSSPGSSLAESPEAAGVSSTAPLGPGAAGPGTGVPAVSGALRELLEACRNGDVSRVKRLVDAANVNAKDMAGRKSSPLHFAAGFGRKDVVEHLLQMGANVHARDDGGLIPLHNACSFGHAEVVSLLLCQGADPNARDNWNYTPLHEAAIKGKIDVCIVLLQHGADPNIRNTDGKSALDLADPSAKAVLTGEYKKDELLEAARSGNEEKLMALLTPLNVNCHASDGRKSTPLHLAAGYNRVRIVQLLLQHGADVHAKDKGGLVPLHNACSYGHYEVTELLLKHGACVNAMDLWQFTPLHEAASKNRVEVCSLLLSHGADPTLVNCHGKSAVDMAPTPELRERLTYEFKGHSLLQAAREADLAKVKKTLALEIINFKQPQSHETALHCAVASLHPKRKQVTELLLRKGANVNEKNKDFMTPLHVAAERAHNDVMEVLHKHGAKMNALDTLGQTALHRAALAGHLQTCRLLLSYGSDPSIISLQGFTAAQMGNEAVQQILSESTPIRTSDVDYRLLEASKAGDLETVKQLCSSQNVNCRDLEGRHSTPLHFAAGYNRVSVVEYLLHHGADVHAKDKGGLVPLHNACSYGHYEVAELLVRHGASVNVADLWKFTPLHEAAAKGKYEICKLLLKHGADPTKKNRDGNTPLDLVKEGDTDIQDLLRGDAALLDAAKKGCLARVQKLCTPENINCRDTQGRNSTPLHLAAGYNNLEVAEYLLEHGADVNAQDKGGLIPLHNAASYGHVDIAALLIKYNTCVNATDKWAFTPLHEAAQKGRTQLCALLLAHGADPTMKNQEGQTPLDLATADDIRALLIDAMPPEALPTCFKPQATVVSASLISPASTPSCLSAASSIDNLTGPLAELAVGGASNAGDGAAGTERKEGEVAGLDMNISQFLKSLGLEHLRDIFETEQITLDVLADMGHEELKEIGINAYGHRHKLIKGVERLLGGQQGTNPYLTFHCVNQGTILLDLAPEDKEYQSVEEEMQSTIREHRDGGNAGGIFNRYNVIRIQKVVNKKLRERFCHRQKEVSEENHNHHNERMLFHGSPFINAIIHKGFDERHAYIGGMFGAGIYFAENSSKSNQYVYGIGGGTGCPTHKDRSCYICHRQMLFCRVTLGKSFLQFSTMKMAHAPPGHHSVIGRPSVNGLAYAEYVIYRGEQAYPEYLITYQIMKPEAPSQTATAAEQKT
Assay: Inhibition of human recombinant […] TNKS1 (1030 to 1317 residues) expressed in Escherichia coli assessed as inhibition by fluorescence based analysis

Compound | IC50 [nM]
O=C(Nc1ccc(-c2nc3ccccc3c(=O)[nH]2)cc1)c1cccs1 | 21
COC(=O)c1ccc(-c2nc3ccccc3c(=O)[nH]2)cc1 | 23
O=C1OCCN1c1ccc(-c2nc3ccccc3c(=O)[nH]2)cc1 | 15
CC1(c2ccc(-c3nc4ccccc4c(=O)[nH]3)cc2)NC(=O)NC1=O (stereo not given) | 5
NS(=O)(=O)c1ccc(-c2nc3ccccc3c(=O)[nH]2)cc1 | 12
